The source of these data is patent US7476729B2, “Dbait and uses thereof” (Institut Curie, priority 2003, dated 2009).

Bounds are passed on as bounds.

The test system of data set [1] is Hela cells. The experiment in a line: Clonogenic survival assay of Hela cells after 4×0.5 Gy irradiation. The class given is cell-based, human. The note with it: 4×0.5 Gy spaced 2 hours, Dbait transfected with Superfect (83 nM or 2 μg). On the procedure:
Exponentially growing cells in six-well plates were harvested and incubated with […] of complete DMEM containing a mixture of Dbait molecules and Superfect reagent (Qiagen, Courtaboeuf, France) in a ratio of 10 μl Superfect per μg DNA. After 5 h at 37° C. under standard conditions, the cells were washed with PBS and complete DMEM was added. Where indicated, cells were exposed to irradiation either in one session (10 Gy) 5 h after the beginning of transfection or in four sessions of 0.5 Gy administered with a ^137Cs unit (1 Gy/min) 3, 4, 5 and 6 h after the beginning of transfection and allowed to grow for two weeks. When plasmid integration was measured, 2 μg of plasmid was added to Dbait transfection and puromycin (1.7 μg/ml) was added to the growth medium 48 h after transfection. Plasmid transfection efficiency was estimated by analyzing 10,000 cells for GFP expression on a FACScan flow cytometer (FACSalibur, Beckton-Dickinson, USA).
Upon 8 hours transfection of Dbait molecules in Hela cells and four irradiation with 0.5 Gy fractionated irradiation spaced 2 hours (4×0.5 Gy), performed with γ-rays from a ^137Cs source, a significant reduction of clonogenic survival was observed as compared to untransfected cells. The results are given on FIG. 2.1 wherein Panel A gives the dose-dependence of normalized survival clone number in the presence of Dbait32 (SEQ ID NO: 1) and Dbait32H (SEQ ID NO: 1), and Panel B, the normalized survival clone number in the presence of different Dbait molecules at 83 nM (concentration in culture medium). Cell culture was in MEM supplemented with 10% serum. Superfect (Qiagene) was used as transfection agent according to the manufacturer's instruction.
Clonogenic survival was estimated as the number of treated cells forming colonies on the number of untreated cells.

The test system of data set [2] is γ-H2AX in Hep2 cells. The experiment in a line: Kinetics of persistence of DSB sites (γ-H2AX) by FACS in irradiated Hep2 cells. The class given is cell-based, human. The note with it: Hep2, 10 Gy, 0 min to 7 days. Here is the method:
To investigate the effect of Dbait on ionizing radiation-induced g-H2AX foci formation and loss, Dbait32H-Cy3 (SEQ ID NO: 1) were transfected in the Hep2 cells by superfect (Qiagen). Transfected or untransfected Hep2 cells were irradiated at 10 Gy. Cells were fixed at different times (0 min, 30 min, 1 hour, 5 hours, 24 hours, 48 hours, 72 hours and 7 days). Primary mouse monoclonal antibody for g-H2AX (ser139) (Upstate, Tempcula, Calif., USA) was used in 1/500 dilution and incubated for 2 hours at 0° C., then washed by PBS buffer and incubated with Alexa 488-conjugated second antibody anti mouse IgG (Molecular Probe, Eugene, Oreg., USA) diluted in 1/200 for 1 hour in dark room.

Data set [3] has as its system digestive tumors induced in K-Ras^V12G×Apc^1638N transgenic mice. The experiment in a line: Chemosensitization of digestive tumors in K-Ras^V12G×Apc^1638N transgenic mice. The class given is in vivo. The source says:
An endogenous mouse tumor model was chosen to assess the ability of Dbait molecules to sensitize anticancer chemotherapy. To this end, transgenic mice carrying K-Ras^V12G and Apc^1638N mutations were used. They were obtained by breeding two transgenic mice: one carries K-Ras^V12G mutant under the control of the mouse villin promoter(pVill/K-Ras^V12G) (Janssen et al., 2002), the other contains Apc^1638N mutation in one allele (Fodde et al., 1994). Transgenic mice with pVill/K-Ras^V12G×Apc^1638N mutations developed spontaneous tumors in the digestive tract at the age of about 5 months and died rapidly.
They were treated at the mean age of 12 weeks by a combination of chemotherapy (5FU+CPT11) and of Dbait32H (SEQ ID NO: 1) versus chemotherapy alone, according to the protocol shown in FIG. 5.1 panel A. The protocol includes three treatment cycles.
Each cycle consists of intraperitoneal injection of 0.6 mg 5FU and 0.6 mg CPT11, along with 0.1 mg Dbait32H (SEQ ID NO: 1) by oral administration, three times a week, followed by one week rest.
5FU (5 fluorouracile, Teva) was prepared in 0.9% NaCl solution at the concentration of 50 mg/ml. CPT11/Irinotecan (Campto, Aventis) was prepared in 0.9% NaCl solution at the concentration of 20 mg/ml. The health status and survival of the mice were monitored till the death. […]

For data set [4], the system named is GMA32 cells. The experiment in a line: Clonogenicity (clonal survival) assay in GMA32 cells with irradiation or mitotic inhibitors. The class given is cell-based, Chinese hamster. Here is the method: The GMA32 Chinese hamster fibroblast cells permissive of DNA breaks were maintained in MEM medium (Gibco) supplemented with 1 mM sodium pyruvate, 2 mM glutamine, 1×MEM non essential amino acids, 1× penicillin/streptomycin and 10% horse serum. Typically, 2×10^5 to 4×10^5 cells were seeded in medium without antibiotics, in 5 cm diameter Petri dishes 24 hours before the transfection of different Dbait molecules (4.5 μg) with lipofectamine 2000 (LifeTechnologies) as transfection agent (in a 1:3 ratio), according to the manufacturer's instructions. At the end of the transfection the cells were either irradiated (4 Gy) or treated with mitotic inhibitors: nocodazole (200 nM), navelbine (100 nM) or taxol (200 nM).
About 16 hour later the drug was removed and the cells were allowed to recover. Cell irradiation was performed with γ-rays from a ^137Cs source. After a 24 hours recovery, the cells were collected and used either for FACS, western blot analyses or to determine the clonogenicity (survival) and the effect of each treatment.
The effect of radiosensitization and chemosensitization of Dbait molecules in GMA32 cells was evaluated by clonogenicity (clonal survival) assay. For the clonogenicity assay, serial dilutions were made after counting the cells to seed 5 cm Petri dishes with different amounts of cells. The number of cells range from 100-200 (control cells) to 3000 (transfected or/and treated cells). Ten days after, the cells (forming clone) were fixed with 4% paraformaldehyde (20 minutes), then colored with methylene blue (15 minutes), and the number of clone in each plate (in triplicates) was scored.
These drugs are known as potent inhibitors of either polymerization or depolymerization of microtubules. Dbait32 (SEQ ID NO: 1) and Dait32H (SEQ ID NO: 1) were able to enhance to cytotoxic activity of these mitotic inhibitors.

On to “Dbait32H: hairpin double strand DNA with a stem of 32-bp, hexaethyleneglycol linker, phosphorothioate at the free blunt end (DNA ACGCACGGGTGTTGGGTCGTTTGTTCGGATCT; DNA, backbone not given here; hairpin, hexaethyleneglycol loop, 3-bp phosphorothioate at free blunt end)”, for which the clonogenic survival result in data set [1] is on record as “significantly reduced clonogenic survival”. The “level of γ-H2AX over time (FACS)” value in data set [2] was “remained high and long”. Also, the median survival in data set [3] (0.1 mg Dbait32H oral with 0.6 mg 5FU and 0.6 mg CPT11 i.p., three times a week, three cycles) was determined as 226 days. For the same substance, in data set [3] (5FU+CPT11 and Dbait32H (n=8) versus chemotherapy alone (n=7), week 18), the “reduction of tumor numbers (macroscopy and histology)” value is more than 30%. The “chemosensitization (clonal survival)” value in data set [4] (GMA32, 200 nM nocodazole, 100 nM navelbine (vinorelbine) or 200 nM taxol (paclitaxel)) is on record as “chemosensitization was also observed”. In data set [4] (GMA32, 4 Gy irradiation), the “radiosensitization (clonal survival)” value is reported as “radiosensitization to 4 Gy irradiation was observed”.
